How the values were obtained:
P2X2 = target: T1, P2X2 (Homo sapiens, UniProt Q9UBL9); conditions: selectivity of BBG; cited from earlier work
T1 sequence (Q9UBL9 1-471): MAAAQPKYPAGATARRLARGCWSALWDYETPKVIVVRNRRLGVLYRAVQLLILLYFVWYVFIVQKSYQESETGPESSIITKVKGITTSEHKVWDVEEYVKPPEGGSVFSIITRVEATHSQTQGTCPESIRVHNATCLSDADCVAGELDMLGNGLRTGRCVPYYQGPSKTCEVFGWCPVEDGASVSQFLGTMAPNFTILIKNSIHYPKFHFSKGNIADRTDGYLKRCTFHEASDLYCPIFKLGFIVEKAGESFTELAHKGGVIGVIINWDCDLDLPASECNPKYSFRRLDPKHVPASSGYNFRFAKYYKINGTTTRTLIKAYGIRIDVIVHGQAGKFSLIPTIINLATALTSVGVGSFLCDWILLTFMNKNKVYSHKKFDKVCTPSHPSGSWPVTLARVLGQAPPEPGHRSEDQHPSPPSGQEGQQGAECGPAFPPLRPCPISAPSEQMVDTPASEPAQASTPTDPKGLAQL

glutamate receptors = test: Fura-2 calcium microfluorimetry, glutamate-evoked calcium entry; format: cell-based, mouse; conditions: cultured hippocampal neurons; glutamate 100 µM; BBG 1 µM
Procedure: Hippocampal neurons were prepared as described previously (Diaz-Hernandez et al., 2008). Briefly, hippocampi were obtained from E17 mouse embryos and, after dissection and washing three times in Ca^2+/Mg^2+-free HBSS, tissue was digested in the same solution with 0.25% trypsin for 15 min at 37°C. Hippocampi were then washed three times in Ca^2+/Mg^2+-free HBSS and dissociated with a firepolished Pasteur pipette. Cells were counted, resuspended in plating medium (MEM, 10% fetal bovine serum, 0.6% glucose) and plated at a density of 5,000 cells/cm^2 on poly-L-lysine coated coverslips (1 mg/ml). After plating, neurons were cultured for 24-72 h in neuronal culture medium (Neurobasal, B-27, glutamax-I). For biochemical experiments, hippocampal neurons were plated on polylysine-coated (1 mg/ml) 60-mm plates at a density of 200,000 cells/cm^2, and cultured for 72 h in neuronal culture medium. AraC was added at a final concentration of 5 µM after 2 days in culture.
Calcium microfluorimetric analysis in single neurons was carried out according to (Diaz-Hernandez et al., 2001). […]
Neurons were visualized using a Plan Fluor x40 S/0.5-1.3 oil lens. […] The background was subtracted at each wavelength and the 340 / 380 ratio was calculated. The data are represented as the normalized F340/F380 fluorescence ratio, which increases as [Ca^2+]i increases.

Question: For `CCOc1ccc(Nc2ccc(C(=C3C=CC(=[N+](CC)Cc4cccc(S(=O)(=O)[O-])c4)C=C3C)c3ccc(N(CC)Cc4cccc(S(=O)(=O)O)c4)cc3C)cc2)cc1` [BBG, Brilliant Blue G], which “inhibition of P2X2” value (P2X2) is on record?
Answer: Its value is “low micromolar range”.

Question: What about the glutamate-induced calcium entry (glutamate receptors) of the same compound?
Answer: Its glutamate-induced calcium entry is “failed to alter”.
